Measurements as given in patent US20060089400A1, “Novel spiro ketone and carboxylic acid derivatives as specific inhibitors for (po3h2) ser/(po3h2)thr-pro-specific peptidyl-prolylcis/trans-isomerases” (The Vernalis Group of Companies, priority 2002, published 2006).

These compounds were tested against T1, human Pin1 (recombinant from E. coli) (Homo sapiens, UniProt Q13526) (assay: protease-coupled PPIase assay, inhibition of hPin1). Conditions: protease-coupled PPlase assay; substrate Ac-Ala-Ala-(PO3H2)Ser-Pro-Arg-(4-)nitroanilide; trypsin; 2 nM enzyme; 35 mM HEPES pH 7.8; 10° C.; 5 min preincubation; read-out: hPin1-inhibition K1.
T1 construct: made in house; host or cells: E. coli
Format: biochemical
From the text: As described in example 1, the peptidyl-prolyl-cis/trans-isomerase activity can be determined in the so-called protease coupled PPlase assay with the help of isomer-specific proteolysis and the suitable oligopeptide substrates and isomer-specific proteases. Other processes for the detection of PPlase activity are e.g. observing isomer-specific differences with respect to spectroscopic properties, their mobilities or the foldback catalysis of other proteins as well as isomer-specific chemical compounds when recording core resonance spectra.
If adding active components to one of the test systems listed above leads to a measurable decrease in the reaction speed catalysed by the respective PPlase, these active components are classed PPlase inhibitors, as is exemplarily shown in example 1. Assessment of the PPlase specificity of the inhibitor is carried out by testing different PPlases in the assay. By varying the concentration of the inhibitor and assessing the results measured with conventional processes, the corresponding inhibition constant (KI-value) can be determined. The concentration of the inhibitor which inhibits the PPlase-induced catalysis by 50% is called IC50-value.
Determining the inhibition constants of the selected compound according to the invention 1′,2′,3′H-spiro[indene-3′,3-(3H-5-methoxy-benzofurane-2-one)] vis-à-vis the PPlase hPinl by protease-coupled PPlase assay: • Buffer: 35 mM HEPES (pH 7.8), 1,200 μl • Substrate: Ac-Ala-Ala-(PO3H2)Ser-Pro-Arg-(4-)nitroanilide stock solution 10 mg/ml in 35 mM Hepes (pH 7.8), • Auxiliary protease: trypsin (Roth), stock solution 10 mg/ml in 35 mM Hepes (ph 7.8), concentration in the solution for measuring 0.34 mg/ml • Enzyme: human Pin1 (recombinant from E. coli), stock solution 0.55 μM, concentration in the solution for measuring: 2 nM • Effectors: effector stock solution 10 mM in DMSO, concentration in the solution for measuring between 1,000 and 0.01 μM • Temperature: 10° C.
In the incubation solution, the effectors were preincubated with the enzyme for 5 min, then 3.5 μl of the auxiliary protease trypsin were added and the reaction was started immediately afterwards by adding 3.5 μl substrate. The reaction was monitored at a wave length of 390 nm with the measuring instrument Hewlett Packard UVNIS spectrophotometer HP 8452A. The kinetic analysis of the data was carried out by “SigmaPlot” (Scientific Graphing System Vers. 2.0, Jandel Corp.).

T1 sequence (Q13526 whole entry): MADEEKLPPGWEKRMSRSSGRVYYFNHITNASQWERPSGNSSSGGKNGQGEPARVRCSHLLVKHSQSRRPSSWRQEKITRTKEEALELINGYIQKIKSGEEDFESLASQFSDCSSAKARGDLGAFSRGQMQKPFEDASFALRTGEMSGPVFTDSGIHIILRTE

SMILES | Ki [µM]
COC(=O)C1(c2ccccc2O)CCc2ccccc21 (stereo not drawn) | 27
COc1ccc(OC)c(C(=O)C2CCc3ccccc32)c1 (stereo not drawn) [1-(2,5-dimethoxyphenyl)-1′-indane-1′-1-methanone] | 50
O=C1Oc2ccccc2C12CC=CC2 [1′,2′,3′H-spiro[cyclopentene-3′,3-(3H-benzofurane-2-one)]] | 150
COc1ccc2c(c1)C1(CC(C)c3ccccc31)C(=O)O2 (stereo not drawn) [1′,2′,3′H-sprio[1′-methyl-indene-3′,3-(3H-5-methoxy-benzofurane-2-one)]] | 20

Results, then the compound that gave them:

Ki [µM] | SMILES
6 | COc1ccc2c(c1)C1(CCc3ccccc31)C(=O)O2 (stereo not drawn) [1′,2′,3′H-spiro[indene-3′,3-(3H-5-methoxy-benzofurane-2-one)]]
7 | O=C1Oc2ccccc2C12Cc1ccccc1C2 [1′,2′,3′H-sprio[indene-2′,3-(3H-benzofurane-2-one)]]
